In the supplement of paper PMC10307832:

What was measured:
Assay in all cases: relative viability (nuclei count vs DMSO), 5 days (fraction); higher = more cells survive
Trametinib + Bortezomib = compound: CC(=O)Nc1cccc(-n2c(=O)n(C3CC3)c(=O)c3c(Nc4ccc(I)cc4F)n(C)c(=O)c(C)c32)c1 [Trametinib] + CC(C)C[C@H](NC(=O)[C@H](Cc1ccccc1)NC(=O)c1cnccn1)B(O)O [Bortezomib] (partner 0.002 µM)
Method in brief: (§1)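 Relative viability divides the nuclei count in treated wells by that in vehicle wells. Lung cancer cell lines were seeded in 1536-well plates, dosed by pin tool the next day, and fixed and stained after 5 days in one step with final 0.05% Triton X-100, 1% formaldehyde and 1 ug/ml Hoechst. Dosing was a single drug or a fixed anchor-drug dose plus five library-drug doses (not always all listed) in √10 steps, and values are medians of duplicate plates imaged at 4×.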

[1] = compound: CN1C=C(C2=CC=CC=C21)/C=C\3/C4=C(C=CC=N4)NC3=O + CCNC(=O)c1noc(-c2cc(C(C)C)c(O)cc2O)c1-c1ccc(CN2CCOCC2)cc1 [Luminespib] (partner 0.01 µM)
Method in brief: as §1

[2] = compound: CN1C=C(C2=CC=CC=C21)/C=C\3/C4=C(C=CC=N4)NC3=O + COc1cc2c(Oc3ccc(NC(=O)C4(C(=O)Nc5ccc(F)cc5)CC4)cc3F)ccnc2cc1OCCCN1CCOCC1 [Foretinib] (partner 0.25 µM)
Method in brief: as §1

[3] = compound: CN1C=C(C2=CC=CC=C21)/C=C\3/C4=C(C=CC=N4)NC3=O + Nc1ncn([C@H]2C[C@H](O)[C@@H](CO)O2)c(=O)n1 [Decitabine] (partner 2 µM)
Method in brief: as §1

Row | Cell Line | relative viability (Trametinib + Bortezomib; first compound 0.0025 µM) | relative viability (Trametinib + Bortezomib; first compound 0.007906 µM) | relative viability (Trametinib + Bortezomib; first compound 0.025 µM) | relative viability (Trametinib + Bortezomib; first compound 0.07906 µM) | relative viability (Trametinib + Bortezomib; first compound 0.25 µM) | relative viability ([1]; first compound 0.02 µM) | relative viability ([1]; first compound 0.06325 µM) | relative viability ([1]; first compound 0.2 µM) | relative viability ([1]; first compound 0.6325 µM) | relative viability ([1]; first compound 2 µM) | relative viability ([2]; first compound 0.02 µM) | relative viability ([2]; first compound 0.06325 µM) | relative viability ([2]; first compound 0.2 µM) | relative viability ([2]; first compound 0.6325 µM) | relative viability ([2]; first compound 2 µM) | relative viability ([3]; first compound 0.02 µM) | relative viability ([3]; first compound 0.06325 µM) | relative viability ([3]; first compound 0.2 µM) | relative viability ([3]; first compound 0.6325 µM) | relative viability ([3]; first compound 2 µM)
1 | LCLC-103H | 1.16 | 0.977 | 0.887 | 0.821 | 0.626 | 0.933 | 0.809 | 0.934 | 1.07 | 1.17 | 0.735 | 0.685 | 0.813 | 0.802 | 0.858 | 0.724 | 0.732 | 0.684 | 0.696 | 0.732
2 | LOU-NH91 | 0.505 | 0.489 | 0.491 | 0.508 | 0.334 | 0.335 | 0.302 | 0.352 | 0.307 | 0.266 | 0.904 | 0.915 | 0.835 | 0.925 | 0.9 | 0.77 | 0.799 | 0.771 | 0.713 | 0.788
3 | LU99A | 1.08 | 1.21 | 0.815 | 0.726 | 0.407 | 0.265 | 0.255 | 0.275 | 0.355 | 0.28 | 0.637 | 0.699 | 0.759 | 0.845 | 0.835 | 0.855 | 0.877 | 0.902 | 0.848 | 0.842
4 | LXF-289 | 0.872 | 0.812 | 0.757 | 0.703 | 0.459 | 0.668 | 0.662 | 0.741 | 0.69 | 0.785 | 0.943 | 0.957 | 1.04 | 1.05 | 0.977 | 0.403 | 0.338 | 0.425 | 0.396 | 0.381
5 | NCI-H23 | 0.853 | 1.01 | 0.364 | 0.377 | 0.21 | 0.232 | 0.178 | – | 0.194 | 0.222 | 0.982 | 0.977 | 1.03 | 1.03 | 1.07 | 0.321 | 0.295 | 0.306 | 0.336 | 0.347
6 | NCI-H322M | 1.29 | 1.14 | 0.879 | 1.03 | 0.717 | 0.812 | 0.76 | 0.798 | 0.946 | 0.929 | 0.905 | 0.993 | 0.887 | 0.946 | 1.12 | 0.683 | 0.708 | 0.649 | 0.648 | 0.686
7 | NCI-H441 | 0.474 | 0.55 | 0.72 | 0.475 | 0.17 | 0.341 | 0.341 | 0.296 | 0.513 | 0.36 | 0.943 | 0.772 | 0.967 | 1.02 | 0.984 | 0.225 | 0.247 | 0.23 | 0.229 | 0.497
8 | NCI-H460 | 1.03 | 0.82 | 0.544 | 0.346 | 0.043 | 0.0416 | 0.0387 | 0.0352 | 0.0268 | 0.0415 | 1.09 | 0.967 | 1.05 | 0.986 | 0.975 | 0.487 | 0.44 | 0.414 | 0.445 | 0.483
9 | NCI-H520 | 0.612 | 0.485 | 0.444 | 0.44 | 0.126 | 0.204 | 0.24 | 0.217 | 0.211 | 0.229 | 0.639 | 0.773 | 0.847 | 0.717 | 0.937 | 0.46 | 0.492 | 0.536 | 0.473 | 0.52
10 | NCI-H596 | 0.759 | 0.892 | 0.795 | 1.47 | 0.474 | 1 | 1.01 | 0.858 | 0.93 | 0.866 | 0.963 | 0.89 | 0.871 | 0.742 | 0.855 | 1.03 | 1.06 | 0.958 | 1.88 | 1.81
11 | NCI-H647 | 0.853 | 0.75 | 0.652 | 0.654 | 0.294 | 0.177 | 0.124 | 0.192 | 0.128 | 0.324 | 1.24 | 1.24 | 1.04 | 1.17 | 1.01 | 0.391 | 0.314 | 0.384 | 0.327 | 0.349
12 | NCI-H650 | 1.06 | 1.15 | 0.791 | 0.729 | 0.276 | 0.573 | 0.775 | – | 0.757 | 0.889 | 1.05 | 0.938 | – | 1.02 | 1 | 0.316 | 0.338 | – | 0.293 | 0.188
13 | NCI-H661 | 0.82 | 0.689 | 0.728 | 0.534 | 0.54 | 1.06 | 0.875 | 0.946 | 0.973 | 0.917 | 1.11 | 0.965 | 1.04 | 1.05 | 1.04 | 0.594 | 0.562 | 0.496 | 0.564 | 0.555
14 | NCI-H727 | 0.663 | 0.422 | 0.272 | 0.257 | 0.277 | 0.365 | 0.329 | 0.394 | 0.4 | 0.271 | 0.7 | 0.664 | 0.878 | 0.817 | 0.665 | 0.935 | 0.886 | 0.669 | 0.979 | 0.829
15 | NCI-H838 | 0.719 | 0.563 | – | 0.557 | 0.224 | 0.314 | 0.336 | 0.345 | 0.269 | 0.325 | 0.778 | 0.853 | 1.03 | 0.894 | 0.92 | 0.431 | 0.447 | 0.446 | 0.433 | 0.449
16 | NCI-H1355 | 0.981 | 1.04 | 0.554 | 0.847 | 0.266 | 0.65 | 0.623 | 0.669 | 0.533 | 0.629 | 0.957 | 0.893 | 0.958 | 0.772 | 0.766 | 0.342 | 0.375 | 0.374 | 0.317 | 0.324
